Laboratory results reported in US10870638B2, “Pyridazinone compound or its salt, and herbicide containing it” (ISHIHARA SANGYO KAISHA, LTD., priority 2016, dated 2020).

Columns and labels:
Format in all cases: in vivo
Conditions in all cases: 14th day after application
[1] = tested on: barnyardgrass (Echinochloa crus-qalli L.); test: Test Example 1: foliar treatment, growth inhibition rate on 14th day
In short: (§1)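 Visual 0–100% inhibition scoring (100 = complete kill) at 14 days after foliar treatment of soil-grown seedlings at species-specific leaf stages, with the compound sprayed as a wettable powder or emulsifiable concentrate dilution.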

corn (Zea mays L.) [2] = test: as above
In short: as §1

[3] = tested on: crabgrass (Digitaria sanquinalis L.); test: as above
In short: as §1

[4] = tested on: green foxtail (Setaria viridis L.); test: as above
In short: (§2)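 Growth inhibition rates (%) come from visual observation on the 14th day following a single foliar application. Soybean was sprayed at the primary leaf stage, rice at 0.2–2.7 leaves, wild oat at 0.4–1.2, green foxtail at 0.5–3.2.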

[5] = tested on: italian ryegrass (Lolium multiflorum Lam.); test: as above
In short: as §1

[6] = tested on: redroot pigweed (Amaranthus retroflexus L.); test: as above
In short: as §1

rice (Oryza sativa L.) [7] = test: as above
In short: as §2

[8] = tested on: soybean (Glycine max Merr.); test: as above
In short: as §2

[9] = tested on: wheat (Triticum aestivum L.); test: as above
In short: as §1

[10] = tested on: wild oat (Avena fatua L.); test: as above
In short: as §2

[11] = tested on: barnyardgrass (Echinochloa crus-qalli L.); test: Test Example 2: soil application on the day after sowing, growth inhibition rate on 14th day
In short: (§3)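 Pre-emergence soil spray, day after sowing; WP or EC formulations diluted to 1,000 L/ha water at set a.i. rates. Visual growth inhibition %, 0 = untreated, 100 = complete kill, read at day 14.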

corn (Zea mays L.) [12] = test: as above
In short: as §3

[13] = tested on: crabgrass (Digitaris sanquinalis L.); test: as above
In short: as §3

[14] = tested on: green foxtail (Setaria viridis L.); test: as above
In short: as §3

[15] = tested on: prickly sida (Sida spinosa L.); test: as above
In short: as §3

[16] = tested on: redroot pigweed (Amaranthus retroflexus L.); test: as above
In short: as §3

rice (Oryza sativa L.) [17] = test: as above
In short: as §3

[18] = tested on: soybean (Glycine max Merr.); test: as above
In short: as §3

[19] = tested on: velvetleaf (Abutilon theophrasti MEDIC.); test: as above
In short: as §3

[20] = tested on: wheat (Triticum aestivum L.); test: as above
In short: as §3

[21] = active ingredient amount 31 g/ha
[22] = active ingredient amount 31 g/ha, visual, 0 = non-treated, 100 = complete kill
[23] = active ingredient amount 500 g/ha

| Compound | Growth inhibition rate (%) Barnyardgrass [1, 21] [%] | Growth inhibition rate (%) Corn (corn (Zea mays L.) [2]; [21]) [%] | Growth inhibition rate (%) Crabgrass [3, 21] [%] | Growth inhibition rate (%) Green foxtail [4, 21] [%] | Growth inhibition rate (%) Italian ryegrass [5, 21] [%] | Growth inhibition rate (%) Redroot pigweed [6, 21] [%] | Growth inhibition rate (%) Rice (rice (Oryza sativa L.) [7]; [21]) [%] | Growth inhibition rate (%) Soybean [8, 21] [%] | Growth inhibition rate (%) Wheat [9, 21] [%] | Growth inhibition rate (%) Wild oat [10, 21] [%] | Growth inhibition rate (%) Barnyardgrass [11, 21] [%] | Growth inhibition rate (%) Corn (corn (Zea mays L.) [12]; [21]) [%] | Growth inhibition rate (%) Crabgrass [13, 21] [%] | Growth inhibition rate (%) Green foxtail [14, 21] [%] | Growth inhibition rate (%) Prickly sida [15, 21] [%] | Growth inhibition rate (%) Redroot pigweed [16, 21] [%] | Growth inhibition rate (%) Rice (rice (Oryza sativa L.) [17]; [21]) [%] | Growth inhibition rate (%) Soybean [18, 21] [%] | Growth inhibition rate (%) Velvetleaf [19, 21] [%] | Growth inhibition rate (%) Wheat [20, 21] [%] | other results |
| --- | --- | --- | --- | --- | --- | --- | --- | --- | --- | --- | --- | --- | --- | --- | --- | --- | --- | --- | --- | --- | --- |
| CCc1ccc(Oc2ncc(C(F)(F)F)cc2Cl)cc1-c1c(O)cnn(CC)c1=O [1-173] | 100 | 99 | 100 | 100 | 95 | 0 | 60 | 0 | 35 | 100 | 100 | 50 | 100 | 100 | 0 | 0 | 60 | 0 | 0 | 0 | – |
| CCc1ccc(Oc2ncc(C(F)(F)F)cc2Cl)cc1-c1c(OC(C)=O)c(C)nn(C)c1=O [1-45] | 100 | 100 | 100 | 100 | 100 | 10 | 99 | 10 | 99 | 100 | 100 | 88 | 100 | 100 | 0 | 0 | 30 | 0 | 0 | 20 | – |
| C=CCn1ncc(O)c(-c2cc(Oc3ncc(C(F)(F)F)cc3Cl)ccc2C)c1=O [1-167] | 98 | 100 | 99 | 100 | 93 | 0 | 35 | 10 | 40 | 98 | 85 | 0 | 100 | 95 | 0 | 0 | 0 | 0 | 0 | 0 | – |
| C=CC(=O)Oc1c(C)nn(C)c(=O)c1-c1cc(Oc2cnc3cc(Cl)ccc3n2)ccc1C [Compound 3-49] | – | – | – | – | – | – | – | – | – | – | 95 | 0 | 20 | 85 | 0 | 0 | 0 | 0 | 0 | 10 | Growth inhibition rate (%) Barnyardgrass [1, 22]: 99%; Growth inhibition rate (%) Corn (corn (Zea mays L.) [2]; [22]): 45%; Growth inhibition rate (%) Crabgrass [3, 22]: 100%; Growth inhibition rate (%) Green foxtail [4, 22]: 100%; Growth inhibition rate (%) Italian ryegrass [5, 22]: 100%; Growth inhibition rate (%) Redroot pigweed [6, 22]: 0%; Growth inhibition rate (%) Rice (rice (Oryza sativa L.) [7]; [22]): 50%; Growth inhibition rate (%) Soybean [8, 22]: 20%; Growth inhibition rate (%) Wheat [9, 22]: 99%; Growth inhibition rate (%) Wild oat [10, 22]: 98% |
| CCn1nc(C)c(OC(C)=O)c(-c2cc(Oc3ncc(C(F)(F)F)cc3Cl)ccc2C)c1=O [1-165] | 100 | 100 | 100 | 100 | 100 | 0 | 83 | 0 | 95 | 100 | 99 | 0 | 100 | 95 | 0 | 0 | 0 | 0 | 0 | 0 | – |
| CCc1ccc(Oc2ncc(C(F)(F)F)cc2Cl)cc1-c1c(OC(C)=O)cnn(CC)c1=O [1-174] | 100 | 100 | 100 | 100 | 93 | 0 | 20 | 0 | 75 | 100 | 100 | 0 | 100 | 100 | 0 | 0 | 0 | 0 | 0 | 0 | – |
| Cc1ccc(Oc2ccc3ccccc3n2)cc1-c1c(O)c(C)nn(C)c1=O [Compound 2-108] | – | – | – | – | – | – | – | – | – | – | – | – | – | – | – | – | – | – | – | – | Growth inhibition rate (%) Barnyardgrass [1, 23]: 100%; Growth inhibition rate (%) Corn (corn (Zea mays L.) [2]; [23]): 10%; Growth inhibition rate (%) Crabgrass [3, 23]: 85%; Growth inhibition rate (%) Green foxtail [4, 23]: 95%; Growth inhibition rate (%) Italian ryegrass [5, 23]: 10%; Growth inhibition rate (%) Redroot pigweed [6, 23]: 0%; Growth inhibition rate (%) Rice (rice (Oryza sativa L.) [7]; [23]): 93%; Growth inhibition rate (%) Soybean [8, 23]: 20%; Growth inhibition rate (%) Wheat [9, 23]: 50%; Growth inhibition rate (%) Wild oat [10, 23]: 50%; Growth inhibition rate (%) Barnyardgrass [11, 23]: 100%; Growth inhibition rate (%) Corn (corn (Zea mays L.) [12]; [23]): 0%; Growth inhibition rate (%) Crabgrass [13, 23]: 98%; Growth inhibition rate (%) Green foxtail [14, 23]: 93%; Growth inhibition rate (%) Prickly sida [15, 23]: 0%; Growth inhibition rate (%) Redroot pigweed [16, 23]: 0%; Growth inhibition rate (%) Rice (rice (Oryza sativa L.) [17]; [23]): 93%; Growth inhibition rate (%) Soybean [18, 23]: 0%; Growth inhibition rate (%) Velvetleaf [19, 23]: 0%; Growth inhibition rate (%) Wheat [20, 23]: 0% |
| C#CCOC(=O)Oc1c(C)nn(C)c(=O)c1-c1cc(Oc2cnc3cc(Cl)ccc3n2)ccc1C [Compound 3-64] | – | – | – | – | – | – | – | – | – | – | 98 | 0 | 50 | 93 | 0 | 0 | 0 | 0 | 0 | 0 | Growth inhibition rate (%) Barnyardgrass [1, 22]: 98%; Growth inhibition rate (%) Corn (corn (Zea mays L.) [2]; [22]): 50%; Growth inhibition rate (%) Crabgrass [3, 22]: 90%; Growth inhibition rate (%) Green foxtail [4, 22]: 100%; Growth inhibition rate (%) Italian ryegrass [5, 22]: 85%; Growth inhibition rate (%) Redroot pigweed [6, 22]: 0%; Growth inhibition rate (%) Rice (rice (Oryza sativa L.) [7]; [22]): 0%; Growth inhibition rate (%) Soybean [8, 22]: 0%; Growth inhibition rate (%) Wheat [9, 22]: 60%; Growth inhibition rate (%) Wild oat [10, 22]: 83% |
| CCc1ccc(Oc2nc3ccccc3o2)cc1-c1c(O)c(C)nn(C)c1=O [Compound 2-165] | 100 | 35 | 70 | 88 | 0 | 0 | 25 | 25 | 0 | 0 | 99 | 0 | 98 | 99 | 0 | 0 | 70 | 0 | 0 | 0 | – |
